Earlier results as cited in PMC11982978, “Cancer hotspot mutations rewire ERK2 specificity by selective exclusion of docking interactions” (The Journal of Biological Chemistry, 2025).

test system: WT ERK2; settings: selective conditions (-His); hits Z > 3; average of three screens; cited from earlier work
Description: Supplement mmc2.xlsx, sheet "WT Hits" | column: Z-score

Question: For “KQGGRKPKPLWLSP [KIAA0556, D-site 14-mer in ELK1 Y2H prey]”, which “Z-score (ES) of hit sequences, WT ERK2 Y2H screen” value (shortened to “Z-score (ES) of hit sequences”) is on record?
Answer: 4.98

Question: With “KQRKLSPLRLSVSN [KMT2E, D-site 14-mer in ELK1 Y2H prey]” as the sequence, how does the “Z-score (ES) of hit sequences” value read?
Answer: 4.49

Question: Which “Z-score (ES) of hit sequences” value does the source give for “KRSKKNSLALSLTA [ESR1, D-site 14-mer in ELK1 Y2H prey]” here?
Answer: 5.11

Question: With “KRWLRKPRPVSLFS [GTF3C1, D-site 14-mer in ELK1 Y2H prey]” as the sequence, how does the “Z-score (ES) of hit sequences” value read?
Answer: 5.35

Question: For “KSRQKNPRSLCIQP [MTUS1, D-site 14-mer in ELK1 Y2H prey]”, which “Z-score (ES) of hit sequences” value is on record?
Answer: 4.97

Question: Which “Z-score (ES) of hit sequences” value does the source give for “KTKRNKILKLKFPR [ATP8B1, D-site 14-mer in ELK1 Y2H prey]” here?
Answer: 3.62

Question: For “KTQRLDVAKVCLGN [IFT140, D-site 14-mer in ELK1 Y2H prey]”, which “Z-score (ES) of hit sequences” value is on record?
Answer: 4.26

Question: For “LKQRRRAQKLHFLQ [DDX54, D-site 14-mer in ELK1 Y2H prey]”, which “Z-score (ES) of hit sequences” value is on record?
Answer: 3.41

Question: For “LKQRTRPLLINLSK [MCTP2, D-site 14-mer in ELK1 Y2H prey]”, which “Z-score (ES) of hit sequences” value is on record?
Answer: 3.77

Question: For “LQRKGGPTRLTLPS [CMIP, D-site 14-mer in ELK1 Y2H prey]”, which “Z-score (ES) of hit sequences” value is on record?
Answer: 4.12

Question: Which “Z-score (ES) of hit sequences” value does the source give for “LRKKPDLSPLKLTI [TTC41P, D-site 14-mer in ELK1 Y2H prey]” here?
Answer: 5.81

Question: With “LRPLRPKPPLLLPK [RREB1, D-site 14-mer in ELK1 Y2H prey]” as the sequence, how does the “Z-score (ES) of hit sequences” value read?
Answer: 9.18

Question: Which “Z-score (ES) of hit sequences” value does the source give for “LRVRKARPQLILSR [NOL9, D-site 14-mer in ELK1 Y2H prey]” here?
Answer: 4.35

Question: For “MQKKIKIPKLSLNH [BEND5, D-site 14-mer in ELK1 Y2H prey]”, which “Z-score (ES) of hit sequences” value is on record?
Answer: 3.94

Question: Which “Z-score (ES) of hit sequences” value does the source give for “NGRREKRKQLTLPS [TBX2, D-site 14-mer in ELK1 Y2H prey]” here?
Answer: 10.21

Question: For “NKSLKNQHGLTLQL [ZNF534, D-site 14-mer in ELK1 Y2H prey]”, which “Z-score (ES) of hit sequences” value is on record?
Answer: 12.39

Question: For “NQKKPALKKLTLLP [IWS1, D-site 14-mer in ELK1 Y2H prey]”, which “Z-score (ES) of hit sequences” value is on record?
Answer: 4.19

Question: Which “Z-score (ES) of hit sequences” value does the source give for “PDGKKRRKVLALPS [RBM28, D-site 14-mer in ELK1 Y2H prey]” here?
Answer: 5.03

Question: With “PDRKAKPTPLDLRN [GAB2, D-site 14-mer in ELK1 Y2H prey]” as the sequence, how does the “Z-score (ES) of hit sequences” value read?
Answer: 7.63

Question: For “PDRKVKPAPLEIKP [GAB1, D-site 14-mer in ELK1 Y2H prey]”, which “Z-score (ES) of hit sequences” value is on record?
Answer: 10.25

Question: Which “Z-score (ES) of hit sequences” value does the source give for “PFGSRRSSAIGIEN [RAP1GAP, D-site 14-mer in ELK1 Y2H prey]” here?
Answer: 5.61

Question: Which “Z-score (ES) of hit sequences” value does the source give for “PGKRGRPRKLKLCK [MGA, D-site 14-mer in ELK1 Y2H prey]” here?
Answer: 8.03

Question: Which “Z-score (ES) of hit sequences” value does the source give for “PGRRQNTIVVKVPG [BANP, D-site 14-mer in ELK1 Y2H prey]” here?
Answer: 5.25

Question: With “PIKQKRKLRIFISN [SMARCD1, D-site 14-mer in ELK1 Y2H prey]” as the sequence, how does the “Z-score (ES) of hit sequences” value read?
Answer: 4.04

Question: For “PKDKKRPTPLEIGY [PCLO, D-site 14-mer in ELK1 Y2H prey]”, which “Z-score (ES) of hit sequences” value is on record?
Answer: 4.93

Question: Which “Z-score (ES) of hit sequences” value does the source give for “PKGKNRPSSLNLDP [ARHGAP31, D-site 14-mer in ELK1 Y2H prey]” here?
Answer: 3.62

Question: Which “Z-score (ES) of hit sequences” value does the source give for “PKRKEPGRSLRIKV [DNAJC27, D-site 14-mer in ELK1 Y2H prey]” here?
Answer: 6.00

Question: For “PLPRRTRRPLLLPR [HPS4, D-site 14-mer in ELK1 Y2H prey]”, which “Z-score (ES) of hit sequences” value is on record?
Answer: 7.88

Question: For “PMKQKRKLRLYISN [SMARCD3, D-site 14-mer in ELK1 Y2H prey]”, which “Z-score (ES) of hit sequences” value is on record?
Answer: 6.57

Question: Which “Z-score (ES) of hit sequences” value does the source give for “PPVKKKPKLLNLKD [SIN3A, D-site 14-mer in ELK1 Y2H prey]” here?
Answer: 4.29

Question: With “PTKTKPKKLLFLGS [SMG1, D-site 14-mer in ELK1 Y2H prey]” as the sequence, how does the “Z-score (ES) of hit sequences” value read?
Answer: 3.46

Question: Which “Z-score (ES) of hit sequences” value does the source give for “PWRTTKPQPLVLSQ [PROX2, D-site 14-mer in ELK1 Y2H prey]” here?
Answer: 3.19

Question: With “QGKTKRPVDLKIKN [TAGAP, D-site 14-mer in ELK1 Y2H prey]” as the sequence, how does the “Z-score (ES) of hit sequences” value read?
Answer: 3.38

Question: With “QLPPRKLPTLKLTP [MTX3, D-site 14-mer in ELK1 Y2H prey]” as the sequence, how does the “Z-score (ES) of hit sequences” value read?
Answer: 3.25

Question: For “QVKLRSRTSLTLPR [RGL1, D-site 14-mer in ELK1 Y2H prey]”, which “Z-score (ES) of hit sequences” value is on record?
Answer: 4.63

Question: Which “Z-score (ES) of hit sequences” value does the source give for “QVPKKAWRKLKLPG [DCAF11, D-site 14-mer in ELK1 Y2H prey]” here?
Answer: 5.07

Question: With “RKARRLEPGLLLPG [SOX18, D-site 14-mer in ELK1 Y2H prey]” as the sequence, how does the “Z-score (ES) of hit sequences” value read?
Answer: 7.78

Question: For “RKEVKRKKVVHMNK [RNF151, D-site 14-mer in ELK1 Y2H prey]”, which “Z-score (ES) of hit sequences” value is on record?
Answer: 6.59

Question: For “RKKDRPRKHLTLNN [SP100, D-site 14-mer in ELK1 Y2H prey]”, which “Z-score (ES) of hit sequences” value is on record?
Answer: 3.83

Question: Which “Z-score (ES) of hit sequences” value does the source give for “RKKKLTMRPLVLQK [MAP3K19, D-site 14-mer in ELK1 Y2H prey]” here?
Answer: 3.59

Question: Which “Z-score (ES) of hit sequences” value does the source give for “RKPRSPPRALVLPH [PEG10, D-site 14-mer in ELK1 Y2H prey]” here?
Answer: 3.94

Question: For “RKRSKPKLKLKIIN [KMT2C, D-site 14-mer in ELK1 Y2H prey]”, which “Z-score (ES) of hit sequences” value is on record?
Answer: 17.15

Question: Which “Z-score (ES) of hit sequences” value does the source give for “RKTKKKKSHLSLVG [ATXN7L3, D-site 14-mer in ELK1 Y2H prey]” here?
Answer: 3.39

Question: With “RLQSRKPPNLSITI [RHBDF2, D-site 14-mer in ELK1 Y2H prey]” as the sequence, how does the “Z-score (ES) of hit sequences” value read?
Answer: 20.42

Question: Which “Z-score (ES) of hit sequences” value does the source give for “RPRCRRQPRLRLPT [EPM2A, D-site 14-mer in ELK1 Y2H prey]” here?
Answer: 13.05

Question: For “RQKKERPHMLNLSG [SYDE2, D-site 14-mer in ELK1 Y2H prey]”, which “Z-score (ES) of hit sequences” value is on record?
Answer: 5.14

Question: For “RRQHRPPALLTLYP [DOCK6, D-site 14-mer in ELK1 Y2H prey]”, which “Z-score (ES) of hit sequences” value is on record?
Answer: 3.71

Question: With “RRRGTRPPLLALLA [ROR1, D-site 14-mer in ELK1 Y2H prey]” as the sequence, how does the “Z-score (ES) of hit sequences” value read?
Answer: 4.89

Question: For “RSVRKRSPWLQLPG [FCRLB, D-site 14-mer in ELK1 Y2H prey]”, which “Z-score (ES) of hit sequences” value is on record?
Answer: 3.88

Question: With “SGDPRKPRQLTVGD [ZMYND15, D-site 14-mer in ELK1 Y2H prey]” as the sequence, how does the “Z-score (ES) of hit sequences” value read?
Answer: 5.02

Question: With “SGMRARRGLLRLPR [B4GALT5, D-site 14-mer in ELK1 Y2H prey]” as the sequence, how does the “Z-score (ES) of hit sequences” value read?
Answer: 5.95

Question: With “SKGKKRNPGLKIPK [MAP2K6, D-site 14-mer in ELK1 Y2H prey]” as the sequence, how does the “Z-score (ES) of hit sequences” value read?
Answer: 8.58

Question: Which “Z-score (ES) of hit sequences” value does the source give for “SLARAKRPSVSFAE [SCARF1, D-site 14-mer in ELK1 Y2H prey]” here?
Answer: 5.09

Question: For “SLKKKIQPKLSLTL [JAZF1, D-site 14-mer in ELK1 Y2H prey]”, which “Z-score (ES) of hit sequences” value is on record?
Answer: 5.24

Question: Which “Z-score (ES) of hit sequences” value does the source give for “SPKWKNFKGLKLQW [MLXIP, D-site 14-mer in ELK1 Y2H prey]” here?
Answer: 8.72

Question: With “SRKQRQPARLQLPA [ZBTB45, D-site 14-mer in ELK1 Y2H prey]” as the sequence, how does the “Z-score (ES) of hit sequences” value read?
Answer: 3.70

Question: Which “Z-score (ES) of hit sequences” value does the source give for “TKMQKKVLSLRLPC [RIN2, D-site 14-mer in ELK1 Y2H prey]” here?
Answer: 7.27

Question: For “TRQKHAKKHLGFFR [UTP23, D-site 14-mer in ELK1 Y2H prey]”, which “Z-score (ES) of hit sequences” value is on record?
Answer: 3.13

Question: Which “Z-score (ES) of hit sequences” value does the source give for “TYRPKRPTTLNLFP [MAPK8IP1, D-site 14-mer in ELK1 Y2H prey]” here?
Answer: 3.22

Question: With “VVALRKKQQLAIGP [AGAP3, D-site 14-mer in ELK1 Y2H prey]” as the sequence, how does the “Z-score (ES) of hit sequences” value read?
Answer: 6.33

Question: For “YKMKFFTKCVAFSK [LRP2BP, D-site 14-mer in ELK1 Y2H prey]”, which “Z-score (ES) of hit sequences” value is on record?
Answer: 3.15
